This note sets out measurements from a melting point compilation (Tetko et al.; mined from patent text by program, amines drawn as free bases though some values may be those of a salt).

Bounds are passed on as bounds.

For the molecule `COc1cc2c(cc1OC)C(Cc1ccc([N+](=O)[O-])cc1)NCC2` (configuration not stated), the melting point was 134 to 136 °C.

`COc1cc([C@H]2CC[C@H](c3cc(OC)c(OC)c(OC)c3)C2=O)cc(OC)c1OC` (relative stereo) displayed a melting point of 140 to 142 °C. The same measure for `O=c1c2ccccc2ccc2cc(F)ccc12`: 119 to 123 °C; for `CCCCC(=O)c1c(-c2ccc3c(Br)c(OCC(=O)O)ccc3c2)sc2ccccc12`: 164 to 165 °C. With `COc1cc2cnc(Cl)nc2cc1OC`, the melting point was 237 to 238 °C. `Cc1ccc(-c2ccc(O)cc2)c(-c2ccc(OCCN3CCCC3)cc2)n1` returned a melting point of 159 to 161 °C. As to `COc1ccc(-c2nc(SCc3cccc(CSc4ncnc5nc[nH]c45)c3)[nH]c2-c2ccc(OC)cc2)cc1`, the melting point fell in the range of 129 to 130 °C. The same measure for `CC(C)c1cccc(C(C)C)c1NC(=O)Cc1ccccc1NCC(c1ccccc1)c1ccccc1`: 174 to 176 °C; for `COc1cc2c(c(C(C)C)c1OC)C(=O)N(CSc1nnnn1-c1ccccc1)S2(=O)=O`: 69 to 71 °C. The same measure for `CCNC(=O)c1cccc2[nH]n(C)c(=O)c12`: 192 to 194 °C; for `COc1ccc2c(c1)COc1c-2cc(-c2cccs2)c2cc(OC)ccc12`: 110 to 112 °C; for `O=C(Nc1ccc(C(=O)N2Cc3ccccc3Sc3ccccc32)cc1)c1ccc(Cl)cc1Cl`: 112 to 115 °C.

Consider `O=c1oc(=O)n(-c2ccccc2)c2ncccc12`, for which the melting point was 196 to 198 °C. The same measure for `Cc1ccccc1-n1c(=O)c(N2CCNCC2)nc2ccccc21`: 151 to 153 °C. The same measure for `O=C1c2ccccc2C(=O)N1CCc1ncc(C(F)(F)F)cc1Cl`: 147 to 148 °C; for `COC(=O)c1ccc2c(c1)COc1ccc(/C=C/c3ccc4c(n3)CCCC4)cc1C2SCCC(=O)O` (configuration not stated): 121 to 123 °C. Under `O=C(C(=O)c1cccc(OCc2ccccc2)c1)c1cc[nH]c1` stands 124 to 125 °C; under `O=C(c1cc2ccc(Br)cc2o1)c1cc2ccc(Br)cc2o1`, 176 to 177 °C. In the case of `N#Cc1ccc(Cn2cncc2CCOc2ccc3c(c2CCc2ccccc2)CCCC3=O)cc1`, the melting point was in the range of 179 to 180 °C. `CNC(=O)[C@H](CCCCNC(=O)OCc1ccccc1)NC(=O)OC(C)(C)C` yielded a melting point of 100 to 102 °C.

`Cc1[nH]c(=O)c(C#N)cc1-c1ccc(S(C)(=O)=O)cc1` returned a melting point of 312 to 313 °C. The molecule `CCC1C=C(CCN(O)C(N)=O)c2ccccc21` (configuration not stated) came in with a melting point of 81 to 83 °C. The same measure for `Nc1nc(NC2Cc3ccccc3N(Cc3ccc(F)cc3F)C2)c2cn[nH]c2n1` (configuration not stated): 110 to 114 °C; for `COc1ccccc1Cc1c(Cl)ncnc1Cl`: 95 to 96 °C. Under `Cc1oc(-c2ccc3ccccc3c2)nc1COc1ccc(/C=C/C=O)cc1` stands 179 to 180 °C; under `Oc1ccccc1C=Cc1nc2ccccc2s1`, 235 to 236 °C; under `CCCCCC(=O)CCn1ccnc1`, 104 to 106 °C. The same measure for `Cc1ccc(NC(C)CC(=O)NC(=O)OC(C)(C)C)cc1` (configuration not stated): 84 to 85 °C; for `COC(C)(C)C(=NO)n1ccnc1`: 155 to 160 °C.

Consider `O=C1NC(=O)C(=Cc2ccccc2)C(=O)N1`, for which the melting point is above 258 °C. For the molecule `CCOC1CC2(C)C(CCC3C4CCC(CC)C4(C)CC(N(C)C)C32)CC1O` (configuration not stated), the melting point fell in the range of 57 to 59 °C.

`COc1cc(OC)c2cc(-c3ccc(OC)nc3OC)oc2c1`: the melting point was 155 to 156 °C. Under `CCOC(=O)NN(C)c1ccc(-c2ccc(F)cc2)nn1` stands 160 to 161 °C; under `Cc1cc([C@@H](O)[C@@H](C)N2CCC(O)(c3ccc(C(F)(F)F)cc3)CC2)cc(C)c1O[Si](C(C)C)(C(C)C)C(C)C` (relative stereo), 177 to 178 °C; under `CC(CSCCSCCSCC(C)C(=O)Nc1ccc(Nc2ccccc2)cc1)C(=O)Nc1ccc(Nc2ccccc2)cc1` (configuration not stated), 131 to 134 °C.

Take `OCCCc1cc(-c2ccc(Cl)cc2)n(-c2c(Cl)cncc2Cl)n1`: the melting point lay within 108 to 110 °C. Under `CCOC(=O)Cc1nc2cc(Cl)ccc2n1CC` stands 44 to 45 °C; under `Cc1c(C(=O)Nc2ccc(N3CCC(N(CCO)CCO)CC3)c(C#N)c2)cnn1-c1ccc(Cl)cc1`, 230 to 233 °C; under `Brc1ccc(N2CCN(Cc3ccccc3)CC2)nc1`, 100 °C. The same measure for `Cc1cccc(C(=O)n2nc(Nc3cccc(OCC(=O)N4CCNCC4)c3)nc2N)c1`: 169 to 171 °C; for `CNC(=O)c1sc(N2CCN(Cc3ccc(F)cc3)C2=O)nc1C`: 225 to 227 °C. The same measure for `Oc1ccc2c(c1)COc1c-2cc2ccc(O)cc2c1-c1ccccc1`: 225 to 227 °C. For `CCCCC(=O)NC(C(=O)OCC)=C(N)SCCOC(C)=O`, the melting point was 84 °C.

For the molecule `CC(O)COC1CCNCC1` (configuration not stated), the melting point is 55 to 57 °C.

Molecule `O=C1c2c(-c3ccccc3F)noc2CCC1CCCN1CCN(c2ccccn2)CC1` (configuration not stated) had a melting point of 94 to 96 °C. On to `C=CCc1cc(NC(C)=O)ccc1O`, for which the melting point was 82 to 85 °C. Under `CC(O)(CCCl)c1ccc(-c2ccc(F)cc2)cc1` (configuration not stated) stands 78 to 79 °C; under `COc1ccc(-n2nc(CCC(=O)N(C)O)cc2-c2ccc(F)cc2)cc1`, 151 to 154 °C. The same measure for `COc1ccc(C(O)(c2ccc(OC)cc2)C2CCN(CCC3CN(C)C(=O)O3)CC2)cc1` (configuration not stated): 145 to 147 °C.

For the molecule `CCN1CCN(CCN2CC[C@H](NC(=O)c3cc(Cl)c(N)cc3OC)[C@H](OC(=O)N3CCCC3)C2)C1=O` (relative stereo), the melting point was determined as 214 °C. Under `O=C(C=Cc1ccc(-c2ccc(OCCCN3CCCCC3)cc2)cc1)N1CCCCC1` stands 146 to 150 °C. The same measure for `COCCC(=O)N[C@H]1CC[C@H](CCN2CCN(c3nc(C)cc4occc34)CC2)CC1`: 158 °C; for `COC(=O)c1cc(S(=O)(=O)N=CN(C)C)ccc1Cl`: 140 to 141 °C; for `CCOc1cc([C@@H](CCN(O)C(N)=O)N2Cc3cccc(NC(=O)C(C)C)c3C2=O)ccc1OC`: 137 to 139 °C. The molecule `Cn1c(COc2ccc(CC3SC(=O)NC3=O)cc2)nc2ccc(Oc3cccc(NC(=O)Nc4ccccc4)c3)cc21` (configuration not stated) gave a melting point of 165 to 167 °C. Under `CC(C)(C)c1cccc(C[C@@H](NC(=O)c2ccc(F)c3ccccc23)[C@@H](O)c2cccc(Cl)c2)c1` (racemic) stands 76 to 78 °C; under `O=C(CCCC(=O)Oc1ccc(C(=O)OCc2ccccc2)cc1)Oc1ccc(C(=O)OCc2ccccc2)cc1`, 93 to 94 °C; under `CCCCCCCCc1ccc(CCC(COC(C)=O)(COC(C)=O)NC(C)=O)cc1`, 112 °C.

The molecule `CCOCc1nc2c(N)nc3ccccc3c2n1CC1(O)CCCC1` yielded a melting point of 156 to 158 °C. Under `CC12CCC(=O)C=C1CCC1C2C(F)CC2(C)C(O)CCC12` (configuration not stated) stands 161 to 162 °C; under `Cc1ccc2nc(C)c(C3=NNC(=O)CO3)n2c1`, 313 °C. Under `Cc1ccccc1N1CCN(CCCCCC(=O)O)CC1` stands 125 °C; under `CCCCC(=O)N(C(=O)NC(=O)c1ccccc1[N+](=O)[O-])c1ccc(Oc2ncc(Cl)cn2)c(C)c1`, 69 to 75 °C; under `COCC#Cc1ncn2c1CN(C)C(=O)c1c(Cl)cccc1-2`, 154 to 156 °C. The same measure for `CC(=O)Nc1cccc(Oc2ccn3nc(-c4ccccc4)c(-c4ccc(=O)n(C(C)C)n4)c3c2)c1`: 178 °C. On to `COC(=O)c1nc(Cl)c(Cl)c(N)c1I`, for which the melting point was in the range of 122 to 123 °C.

In turn, `NS(=O)(=O)c1ccc(-n2c(-c3ccccc3)csc2=S)cc1` gave a melting point of 235 °C. Under `CCCOc1ccc(S(=O)(=O)N2CCCC(C(=O)OCC)C2)cc1-c1nc2cc(Cl)c([N+](=O)[O-])cc2c(=O)[nH]1` (configuration not stated) stands 196 to 197 °C. `CN=C(NC#N)C1=CC2(CCOCC2)Oc2ccc([N+](=O)[O-])cc21` came in with a melting point of 293 to 294 °C. As for `Cc1ccc(-c2n[nH]c3c2CCCC3)cc1`, the melting point was in the range of 57.4 to 59.9 °C.

`COC(=O)c1cc(Cl)c(Oc2ccc(O)cc2)c(Cl)c1` showed a melting point of 152 to 155 °C. The same measure for `O=C1NC(=O)C(Nc2ccc(CCNCC(O)COc3ccc4ccccc4c3)cc2)S1` (configuration not stated): 90 to 91 °C; for `CC(C)(C)OC(=O)N1CCN(C(=O)OC(C)(C)C)C1=S`: 117 to 118 °C; for `N#Cc1ccc(-c2ccc(-c3ccco3)o2)cc1`: 104 to 105 °C. Under `COc1cc(C=CC#N)cc(OC)c1OC` stands 92.1 °C; under `Nc1cccc(Cn2c(-c3ccc(-c4cncnc4)cc3)ccc2-c2ccccc2Cl)n1`, 163 to 164 °C. The same measure for `O=[N+]([O-])c1cnc(Nc2ccccc2F)c([N+](=O)[O-])c1`: 159 to 161 °C; for `CC(C)(C)OC(=O)N1CCC(S(C)(=O)=O)CC1`: 94 to 95 °C.

On to `C#CCSC1NN=C(c2ccncc2)N1c1ccccc1` (configuration not stated), for which the melting point is 151 to 152 °C. `OC[C@H]1CCCN1c1nc2c(-c3nc(C4CC4)no3)ncn2c2cccc(Cl)c12` gave a melting point of 220 to 221 °C. The same measure for `O=C(NC1CCCCC1)Oc1ccc(Oc2ccccc2)cc1`: 166 to 168 °C; for `Nc1cc(Oc2ccc3c(C(=O)Nc4ccc(F)c(C5CC5)c4)cccc3c2)ncn1`: 256 to 257 °C; for `CCCCCCCCCCCCCC(C)Oc1c(I)cc(I)cc1I` (configuration not stated): 56 to 58 °C.

In turn, `CC(C)(C)CC(C)(C)Nc1nc(NC(C)(C)CC(C)(C)C)nc(N2CC3CCC(CC3)C2)n1` returned a melting point of 126 to 127 °C.

Molecule `CCOc1ccc(-c2ccc(OC(CC)CCN3CCN(c4cncs4)CC3)cc2)cc1` (configuration not stated) had a melting point of 149 to 150 °C. Under `COc1ccc(-c2cc(=O)c(C(=O)O)cn2C2CC2)cc1` stands 159 to 161 °C; under `COc1ccc2c(Cc3c(Cl)cncc3Cl)n[nH]c(=O)c2c1`, 259 to 262 °C.
